{"source": "patent US9388425B2", "about": "“Tunable genetic switch for regulating gene expression” (TRUSTEES OF BOSTON UNIVERSITY, priority 2006, dated 2016)", "test_system": "Rosa26 cells", "experiment": "Apoptosis and cell death, annexin V and propidium iodide staining, flow cytometry, Rosa26 cells", "type": "cell-based, mouse", "details": "indicated levels of IPTG (0, 250 pM, 2.5 μM, 1 mM)", "protocol": "Rosa26fibroblasts were obtained from embryonic day 14.5 Rosa26-R mice. The cells were maintained in embryonic fibroblast medium (high-glucose DMEM, 10% FBS, penicillin/streptomycin, L-glutamine, and sodium pyruvate) and grown in a humidified 5% CO2, 37CC incubator. These cells were transfected with 0.8 μg of LTRi-cre and LTRi-bax using Lipofectamine 2000 reagent (Invitrogen). The LTRi-cre cells were analyzed by β-galactosidase staining 48 hr after transfection. The LTRi-bax cells were stained and analyzed by flow cytometry 48 hr after transfection. […]\nCells were grown in 12-well plates, and 24 hr after plating, they were transfected with 0.8 μg of LTRi-bax using Lipofectamine 2000 reagent (Invitrogen) per the manufacturer's protocol and exposed to the indicated levels of IPTG. […] Annexin V has a high affinity for phosphatidylserine; therefore, annexin V conjugated with Alexa Fluor 488 can identify apoptotic cells by binding to phosphatidylserine and can be analyzed by flow cytometry measuring the fluorescence emission at 530 nm (FL1). […] It is impermeable to live and apoptotic cells but stains dead cells with red fluorescence. Dead cells appear red and can be analyzed by flow cytometry measuring the red florescence emission >575 nm (FL3). […]", "data": [{"smiles": "CC(C)S[C@@H]1O[C@H](CO)[C@H](O)[C@H](O)[C@H]1O", "note": "[IPTG, isopropyl-β-thiogalactopyranoside]", "values": [{"measurement": "apoptosis or cell death of non-transfected cells exposed to inducer", "result": "no change in apoptosis or cell death"}]}]}
